Laboratory results published in US12357565B2, “Ocular implant containing a tyrosine kinase inhibitor” (Ocular Therapeutix, Inc., priority 2020, dated 2025).

Legend:
[1] = Rugo et al. 2005, patients; cited from earlier work
[2] = system: VEGF-induced vascular leakage; test: VEGF challenge in rabbits: vascular leakage scored by fluorescein angiography; format: in vivo; settings: rabbit; 1.25 mg Avastin® alone (group 3)
[3] = 1.25 mg dose, rabbits (Sinapis et al., 2011); cited from earlier work

Molecule	Clearance half-life (t1/2) [1]	Time after which vascular leakage re-occurred (effect lasted until) [2] [months]	Half-life [3] [h]
CNC(=O)c1ccccc1Sc1ccc2c(/C=C/c3ccccn3)n[nH]c2c1 [axitinib, N-methyl-2-[3-((E)-2-pyridin-2-yl-vinyl)-1H-indazol-6-ylsulfanyl]-benzamide]	a few hours	–	–
Avastin®: anti-VEGF therapeutic, 1.25 mg intravitreal	–	3	158
